Paper PMC8745330, “Aromatic Sulfonamides including a Sulfonic Acid Tail: New Membrane Impermeant Carbonic Anhydrase Inhibitors for Targeting Selectively the Cancer-Associated Isoforms” (International Journal of Molecular Sciences, 2021)
Several values for one entry are separate records, joined by “and”; a condition that tells them apart may be missing. Equal values may be shown once.

Tests used:
hCA II = biological target: T1, hCA II (Homo sapiens, UniProt P00918); test: stopped flow CO2 hydrase assay, CA II; type: biochemical; conditions: mean from 3 different assays, errors ±5–10%
T1 construct: made in house
Method: (§1) An Applied Photophysics stopped-flow instrument was used for assaying the CA catalyzed CO2 hydration activity. Phenol red (at a concentration of 0.2 mM) was used as an indicator, working at the absorbance maximum of 557 nm, with 20 mM HEPES (pH 7.5) as buffer, and 20 mM Na2SO4 (for maintaining constant the ionic strength), following the initial rates of the CA-catalyzed CO2 hydration reaction for a period of 10–100 s. The CO2 concentrations ranged from 1.7 to 17 mM for the determination of the kinetic parameters and inhibition constants. For each inhibitor, at least six traces of the initial 5–10% of the reaction were used for determining the initial velocity. The uncatalyzed rates were determined in the same manner and subtracted from the total observed rates. Stock solutions of inhibitor (0.1 mM) were prepared in distilled–deionized water, and dilutions up to 0.01 nM were done thereafter with the assay buffer. Inhibitor and enzyme solutions were preincubated together for 45 min at room temperature prior to assay in order to allow for the formation of the E–I complex. The inhibition constants were obtained by non-linear least-squares methods using PRISM 3 and the Cheng–Prusoff equation, as reported earlier, representing the mean from at least three different determinations. […] All CA isoforms were recombinant ones obtained in-house, as reported earlier.

hCA IV = biological target: T2, hCA IV (Homo sapiens, UniProt P22748); test: stopped flow CO2 hydrase assay, CA IV; type: biochemical; conditions: mean from 3 different assays, errors ±5–10%
T2 construct: made in house
T2 sequence (P22748 19-312): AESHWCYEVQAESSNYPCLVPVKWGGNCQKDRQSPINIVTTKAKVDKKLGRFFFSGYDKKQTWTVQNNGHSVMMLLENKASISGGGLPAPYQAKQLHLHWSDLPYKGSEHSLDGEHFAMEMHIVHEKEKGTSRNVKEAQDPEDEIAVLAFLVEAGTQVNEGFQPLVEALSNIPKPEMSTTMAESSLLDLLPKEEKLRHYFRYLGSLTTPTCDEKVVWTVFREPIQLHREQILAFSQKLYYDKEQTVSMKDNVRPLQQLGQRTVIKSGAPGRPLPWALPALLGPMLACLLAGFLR
Method: as §1

[1] = Caco-2 cell viability by MTS; type: cell-based; conditions: human; Caco-2 cells, 50 μM, 2 h of exposure, MTS; data not shown
Method: (§2) The colorectal adenocarcinoma cell line Caco-2 was purchased from American Tissue Type Culture Collection (Manassas, VA, USA) and cultured in Dulbecco’s modified Eagle’s medium (DMEM) (Thermo Fisher Scientific, Rodano, Milan, Italy) with 20% fetal bovine serum (FBS) (Thermo Fisher Scientific, Rodano, Milan, Italy) and 100 U/mL penicillin–streptomycin (Thermo Fisher Scientific, Rodano, Milan, Italy) in 5% CO2 at 37 °C. Cell viability was determined by MTS after 2 h of exposure to the aliphatic sulfonate CAIs at 50 µM concentration, as previously described.

hCA I = biological target: T3, hCA I (Homo sapiens, UniProt P00915); test: stopped flow CO2 hydrase assay, CA I; type: biochemical; conditions: mean from 3 different assays, errors ±5–10%
T3 construct: made in house
T3 sequence (P00915 whole entry): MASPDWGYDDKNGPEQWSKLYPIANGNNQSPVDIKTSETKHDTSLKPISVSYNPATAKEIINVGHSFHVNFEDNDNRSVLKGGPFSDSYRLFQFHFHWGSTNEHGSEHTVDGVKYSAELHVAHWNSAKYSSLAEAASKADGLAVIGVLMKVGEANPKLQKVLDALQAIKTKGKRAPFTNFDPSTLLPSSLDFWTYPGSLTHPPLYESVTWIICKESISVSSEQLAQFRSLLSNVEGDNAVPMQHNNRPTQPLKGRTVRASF
Method: as §1

hCA IX = biological target: T4, hCA IX (Homo sapiens, UniProt Q16790); test: stopped flow CO2 hydrase assay, CA IX; type: biochemical; conditions: for Selectivity index (SI) CA I/CA IX / Selectivity index (SI) CA II/CA IX: ratio between KI values; for Ki: stopped flow CO2 hydrase assay, mean from 3 different assays, errors ±5–10%
T4 construct: made in house
Method: as §1

hCA XII = biological target: T5, hCA XII (Homo sapiens, UniProt O43570); test: stopped flow CO2 hydrase assay, CA XII; type: biochemical; conditions: for Selectivity index (SI) CA I/CA XII / Selectivity index (SI) CA II/CA XII: ratio between KI values; for Ki: stopped flow CO2 hydrase assay, mean from 3 different assays, errors ±5–10%
T5 construct: made in house
T5 sequence (O43570 25-354): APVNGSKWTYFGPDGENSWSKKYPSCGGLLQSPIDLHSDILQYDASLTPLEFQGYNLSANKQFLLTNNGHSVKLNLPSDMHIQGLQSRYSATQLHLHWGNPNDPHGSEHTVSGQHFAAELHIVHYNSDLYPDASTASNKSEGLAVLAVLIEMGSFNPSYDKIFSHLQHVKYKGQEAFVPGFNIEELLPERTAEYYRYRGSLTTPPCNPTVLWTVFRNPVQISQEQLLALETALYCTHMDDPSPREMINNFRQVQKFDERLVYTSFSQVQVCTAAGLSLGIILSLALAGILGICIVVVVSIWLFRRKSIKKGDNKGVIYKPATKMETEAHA
Method: as §1

Caco-2 cells = test: Caco-2 cell viability by MTS; type: cell-based; conditions: 50 µM
Method: as §2

Row | Compound | Ki (hCA II) | Ki (hCA IV) | viability at 2 h, 50 µM [1] | Ki (hCA I) | melting point | Selectivity index (SI) CA I/CA IX (hCA IX) | Selectivity index (SI) CA II/CA IX (hCA IX) | Ki (hCA IX) | Selectivity index (SI) CA I/CA XII (hCA XII) | Selectivity index (SI) CA II/CA XII (hCA XII) | Ki (hCA XII) | cell viability (Caco-2 cells)
1 | CC(=O)Nc1cc(S(N)(=O)=O)ccc1OCc1cn(CCCS(=O)(=O)[O-])nn1.[Na+] [Compound 39, Sodium 3-(4-((2-acetamido-4-sulfamoylphenoxy)methyl)-1H-1,2,3-triazol-1-yl)propane-1-sulfonate] | 63.4 nM | 244 nM | > 95% | > 10000 nM | > 300 °C | >41 | 0.26 | 242 nM | >534 | 3.4 | 18.7 nM | 
2 | NS(=O)(=O)c1ccc(C(=O)NCc2cn(CCCS(=O)(=O)[O-])nn2)cc1.[Na+] [Compound 33, Sodium 3-(4-((4-sulfamoylbenzamido)methyl)-1H-1,2,3-triazol-1-yl)propane-1-sulfonate] | 4.3 nM | 56.3 nM | > 95% | 458 nM | > 300 °C | 143 | 1.3 | 3.2 nM | 48 and 48.2 | 0.45 | 9.5 nM | 
3 | Sodium 3-(4-(4-sulfamoylphenyl)-1H-1,2,3-triazol-1-yl)butane-1-sulfonate [Compound 41] | 18.8 nM | 408 nM |  | 150 nM |  | 17 | 2.2 | 8.6 nM | 3.4 | 0.44 | 43.1 nM | > 95%
4 | NS(=O)(=O)c1ccc(NC(=O)NCc2cn(CCCS(=O)(=O)[O-])nn2)cc1.[Na+] [Compound 34, Sodium 3-(4-((3-(4-sulfamoylphenyl)ureido)methyl)-1H-1,2,3-triazol-1-yl)propane-1-sulfonate] | 7.4 nM | 63.5 nM | > 95% | 622 nM | > 300 °C | 9.1 | 0.11 | 68.2 nM | 9.2 | 0.11 | 67.6 nM | 
5 | Sodium 3-(4-(((4-sulfamoylphenyl)amino)methyl)-1H-1,2,3-triazol-1-yl)butane-1-sulfonate [Compound 43] | 364 nM | 883 nM |  | 2910 nM |  | 36 | 4.5 | 79.9 nM | 855 | 107 | 3.4 nM | > 95%
6 | NS(=O)(=O)c1ccc(NC(=O)Nc2ccc(OCc3cn(CCCS(=O)(=O)[O-])nn3)cc2)cc1.[Na+] [Compound 38, Sodium 3-(4-((4-(3-(4-sulfamoylphenyl)ureido)phenoxy)methyl)-1H-1,2,3-triazol-1-yl)propane-1-sulfonate] | 5.4 nM | 36.7 nM | > 95% | 51.6 nM | > 300 °C | 0.95 | 0.10 | 54.4 nM | 1.1 | 0.11 | 49 nM | 
